{
  "source": "patent US9724318B2",
  "about": "“Compositions for improving mental concentration” (priority 2001, dated 2017)",
  "test": "acute toxic test using a mouse, oral administration",
  "assay_type": "in vivo",
  "conditions": "oral administration at 5 g/kg",
  "excerpt": "The theanine used in the present invention has high safety. […] Also, especially L-theanine is known as a main component of umami (tastiness) of the green tea, and is also used as a food additive giving umami, without the limitation of its added amount under the regulation for food hygiene. Moreover, contrary to the conventional drugs, since there is no adverse action by theanine at all, the mind-concentration is safely and effectively achieved according to the composition of the present invention, whereby working efficiency, learning efficiency or the like, or sports performance can be improved.",
  "data": [
    {"smiles": "CCNC(=O)CC[C@H](N)C(=O)O", "note": "[theanine, γ-glutamyl ethylamide]", "values": [
      {"measurement": "abnormalities in the general states, weight and the like", "result": "no abnormalities"},
      {"measurement": "cases of death in acute toxic test", "result": "no cases of death"}
    ]}
  ]
}
